Measurements as given in ChEMBL document CHEMBL1201862, “PubChem BioAssay data set” (2004).
Activity calls are given as the source filed them.

Key:
[1] = molecular target: Voltage-dependent T-type calcium channel subunit alpha-1H (Homo sapiens, UniProt O95180); assay type: functional;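 note: channel activity triggered by adding a high calcium stimulation buffer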
[2] = molecular target: T1, Beta-2 adrenergic receptor (Homo sapiens, UniProt P07550); assay: beta2AR agonists driving receptor internalization, dose response, cell-based, FAP fluorogen, flow cytometry, cherry pick 1 (AID 588763); assay type: functional
[3] = molecular target: T1, Beta-2 adrenergic receptor; assay: Dose response for HTS for Beta-2AR agonists via FAP method from Powderset3.; assay type: functional
[4] = Luminescence Cell-Based Dose Response HTS to Identify Activators of Luciferase Translation or Activity in H4-C Neuroglioblastoma Cells. [Related pubchem assays: 1829 (Project Summary), 1814 (Primary HTS)]; assay type: functional
[5] = Luminescence Cell-Based Dose Retest to Confirm Activators of 5'UTR Stem-Loop Driven Alpha-Synuclein mRNA Translation in H4 Neuroglioblastoma Cells. [Related pubchem assays (depositor defined):AID1813, AID1829]; assay type: functional
[6] = Luminescence Cell-Based Dose Response HTS to Identify Activators of 5'UTR Stem-Loop Driven Prion Protein mRNA Translation in H4-C Neuroglioblastoma Cells. [Related pubchem assays: 1829 (Project Summary), 1814 (Primary HTS)]; assay type: functional
[7] = Luminescence Cell-Based Dose Confirmation HTS to Identify Activators of 5'UTR Stem-Loop Driven Alpha-Synuclein mRNA Translation in H4 Neuroglioblastoma Cells. [Related pubchem assays: 1829 (Project Summary), 1814 (Primary HTS)]; assay type: functional
[8] = Luminescence Cell-Based Dose Response HTS to Identify Activators of Luciferase Translation or Activity in H4 […] Cells. [Related pubchem assays: 1829 (Project Summary), 1814 (Primary HTS)]; assay type: functional
H4 = assay: Luminescence Cell-Based Dose Response HTS to Identify Activators of 5'UTR Stem-Loop Driven Prion Protein mRNA Translation in H4 Neuroglioblastoma Cells. [Related pubchem assays: 1829 (Project Summary), 1814 (Primary HTS)]; assay type: functional; conditions: Homo sapiens
[9] = HepG2 cell cytotoxicity, dose response, cytotoxicity control, cherry-picks, set 5 (AID 1053118); assay type: functional, cell-based
Albumin = Albumin (Bos taurus, UniProt P02769); assay: Counterscreen for inhibitors of T-cell receptor (TCR)-CD3 interaction: Fluorescence-based biochemical high throughput dose response assay to identify inhibitors of T-cell receptor (TCR)-CD3 interaction using a TAMRA-labeled BSA probe.; assay type: functional
cells = assay type: functional, cell-based
[10] = molecular target: Nuclear receptor subfamily 0 group B member 1 (Homo sapiens, UniProt P51843); assay type: functional, cell-based;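 note: HEK293T cells transfected with SF-1 and DAX-1 plus StAR promoter luciferase reporter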
[11] = HeLa cell cytotoxicity, dose response, cytotoxicity control for MgcRacGAP inhibitor project (AID 624300); assay type: functional
[12] = molecular target: T2, Rac GTPase-activating protein 1 (Homo sapiens, UniProt Q9H0H5); assay: MgcRacGAP GTPase-activating activity inhibitors, confirmation, biochemical, ADP Hunter fluorescence, primary and confirmatory (AID 624330); assay type: functional
T2 sequence (Q9H0H5 whole entry): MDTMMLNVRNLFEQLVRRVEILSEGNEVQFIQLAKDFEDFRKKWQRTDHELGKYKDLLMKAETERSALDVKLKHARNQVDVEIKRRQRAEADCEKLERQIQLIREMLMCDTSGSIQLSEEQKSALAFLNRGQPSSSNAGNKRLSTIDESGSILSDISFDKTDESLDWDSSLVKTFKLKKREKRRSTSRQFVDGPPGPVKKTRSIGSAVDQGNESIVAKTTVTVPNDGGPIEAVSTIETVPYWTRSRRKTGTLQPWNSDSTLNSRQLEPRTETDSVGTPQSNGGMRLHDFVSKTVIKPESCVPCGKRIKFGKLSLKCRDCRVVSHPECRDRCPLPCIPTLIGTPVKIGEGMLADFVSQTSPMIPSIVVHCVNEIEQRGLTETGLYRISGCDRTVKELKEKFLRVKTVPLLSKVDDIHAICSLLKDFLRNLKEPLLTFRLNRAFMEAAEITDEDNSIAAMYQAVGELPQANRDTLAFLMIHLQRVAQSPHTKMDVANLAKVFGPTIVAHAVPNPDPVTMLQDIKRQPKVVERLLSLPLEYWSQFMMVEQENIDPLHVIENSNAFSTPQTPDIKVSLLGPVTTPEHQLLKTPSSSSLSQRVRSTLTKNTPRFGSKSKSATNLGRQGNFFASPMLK

[13] = molecular target: Arf-GAP with SH3 domain, ANK repeat and PH domain-containing protein 1 (Homo sapiens, UniProt Q9ULH1); assay type: functional;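 note: biochemical fluorescence polarization dose–response screen measuring inhibition of ASAP1; ASAP1 GAP domain stimulating GTP hydrolysis by truncated human ARF1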
[14] = molecular target: T3, Histone-lysine N-methyltransferase NSD2 (Homo sapiens, UniProt O96028); assay type: biochemical
T3 sequence (O96028 whole entry): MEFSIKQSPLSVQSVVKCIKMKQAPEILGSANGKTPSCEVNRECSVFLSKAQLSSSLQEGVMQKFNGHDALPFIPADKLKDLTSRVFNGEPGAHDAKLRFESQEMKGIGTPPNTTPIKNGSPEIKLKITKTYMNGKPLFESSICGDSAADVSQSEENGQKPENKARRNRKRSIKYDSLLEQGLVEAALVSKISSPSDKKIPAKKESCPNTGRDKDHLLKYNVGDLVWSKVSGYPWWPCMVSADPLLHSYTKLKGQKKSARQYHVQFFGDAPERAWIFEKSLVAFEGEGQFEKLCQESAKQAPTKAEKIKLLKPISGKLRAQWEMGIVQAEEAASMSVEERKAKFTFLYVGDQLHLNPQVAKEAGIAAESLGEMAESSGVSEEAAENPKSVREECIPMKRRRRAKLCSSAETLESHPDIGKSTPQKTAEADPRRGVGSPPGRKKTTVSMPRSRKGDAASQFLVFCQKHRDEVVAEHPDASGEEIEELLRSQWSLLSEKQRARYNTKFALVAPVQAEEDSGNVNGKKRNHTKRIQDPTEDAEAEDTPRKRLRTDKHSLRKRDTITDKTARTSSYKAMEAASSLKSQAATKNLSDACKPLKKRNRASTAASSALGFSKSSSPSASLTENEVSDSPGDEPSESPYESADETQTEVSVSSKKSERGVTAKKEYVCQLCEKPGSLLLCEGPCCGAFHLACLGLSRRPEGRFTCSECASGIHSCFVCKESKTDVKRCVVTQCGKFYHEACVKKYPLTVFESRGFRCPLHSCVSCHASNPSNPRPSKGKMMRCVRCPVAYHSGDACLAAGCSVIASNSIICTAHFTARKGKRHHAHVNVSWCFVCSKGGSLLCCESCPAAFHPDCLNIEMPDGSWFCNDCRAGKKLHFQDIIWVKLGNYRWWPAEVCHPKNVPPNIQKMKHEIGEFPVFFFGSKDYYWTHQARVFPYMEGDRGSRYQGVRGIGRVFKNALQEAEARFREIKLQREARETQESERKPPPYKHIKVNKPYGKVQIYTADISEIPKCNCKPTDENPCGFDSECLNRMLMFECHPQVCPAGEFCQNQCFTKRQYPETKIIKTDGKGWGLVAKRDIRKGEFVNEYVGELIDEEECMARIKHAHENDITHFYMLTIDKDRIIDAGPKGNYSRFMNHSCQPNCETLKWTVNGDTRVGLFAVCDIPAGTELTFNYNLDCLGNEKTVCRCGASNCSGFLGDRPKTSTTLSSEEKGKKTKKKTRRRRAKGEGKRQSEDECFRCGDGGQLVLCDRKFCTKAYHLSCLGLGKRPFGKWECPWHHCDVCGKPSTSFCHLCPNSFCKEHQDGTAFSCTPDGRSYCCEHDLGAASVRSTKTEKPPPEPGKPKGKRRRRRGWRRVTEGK

[15] = human group III sPLA2 inhibitors, dose response, biochemical, QFRET, IC50 (AID 743457);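 note: green fluorescence rise as the enzyme cleaves BODIPY PC-A2 in liposomes; potency for inhibition of the enzyme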

T1 sequence (P07550 whole entry): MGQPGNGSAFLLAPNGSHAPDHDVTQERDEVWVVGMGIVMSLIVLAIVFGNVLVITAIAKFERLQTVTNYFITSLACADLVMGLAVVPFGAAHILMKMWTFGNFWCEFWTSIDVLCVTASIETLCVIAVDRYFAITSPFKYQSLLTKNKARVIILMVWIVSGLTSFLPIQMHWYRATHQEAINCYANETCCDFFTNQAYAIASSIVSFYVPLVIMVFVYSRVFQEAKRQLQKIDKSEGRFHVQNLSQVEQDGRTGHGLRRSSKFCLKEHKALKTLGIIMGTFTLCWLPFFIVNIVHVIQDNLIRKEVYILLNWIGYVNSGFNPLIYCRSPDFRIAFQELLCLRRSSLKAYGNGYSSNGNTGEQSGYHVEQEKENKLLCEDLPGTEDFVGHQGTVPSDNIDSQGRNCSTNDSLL
Chain of Voltage-dependent T-type calcium channel subunit alpha-1H (O95180 whole entry): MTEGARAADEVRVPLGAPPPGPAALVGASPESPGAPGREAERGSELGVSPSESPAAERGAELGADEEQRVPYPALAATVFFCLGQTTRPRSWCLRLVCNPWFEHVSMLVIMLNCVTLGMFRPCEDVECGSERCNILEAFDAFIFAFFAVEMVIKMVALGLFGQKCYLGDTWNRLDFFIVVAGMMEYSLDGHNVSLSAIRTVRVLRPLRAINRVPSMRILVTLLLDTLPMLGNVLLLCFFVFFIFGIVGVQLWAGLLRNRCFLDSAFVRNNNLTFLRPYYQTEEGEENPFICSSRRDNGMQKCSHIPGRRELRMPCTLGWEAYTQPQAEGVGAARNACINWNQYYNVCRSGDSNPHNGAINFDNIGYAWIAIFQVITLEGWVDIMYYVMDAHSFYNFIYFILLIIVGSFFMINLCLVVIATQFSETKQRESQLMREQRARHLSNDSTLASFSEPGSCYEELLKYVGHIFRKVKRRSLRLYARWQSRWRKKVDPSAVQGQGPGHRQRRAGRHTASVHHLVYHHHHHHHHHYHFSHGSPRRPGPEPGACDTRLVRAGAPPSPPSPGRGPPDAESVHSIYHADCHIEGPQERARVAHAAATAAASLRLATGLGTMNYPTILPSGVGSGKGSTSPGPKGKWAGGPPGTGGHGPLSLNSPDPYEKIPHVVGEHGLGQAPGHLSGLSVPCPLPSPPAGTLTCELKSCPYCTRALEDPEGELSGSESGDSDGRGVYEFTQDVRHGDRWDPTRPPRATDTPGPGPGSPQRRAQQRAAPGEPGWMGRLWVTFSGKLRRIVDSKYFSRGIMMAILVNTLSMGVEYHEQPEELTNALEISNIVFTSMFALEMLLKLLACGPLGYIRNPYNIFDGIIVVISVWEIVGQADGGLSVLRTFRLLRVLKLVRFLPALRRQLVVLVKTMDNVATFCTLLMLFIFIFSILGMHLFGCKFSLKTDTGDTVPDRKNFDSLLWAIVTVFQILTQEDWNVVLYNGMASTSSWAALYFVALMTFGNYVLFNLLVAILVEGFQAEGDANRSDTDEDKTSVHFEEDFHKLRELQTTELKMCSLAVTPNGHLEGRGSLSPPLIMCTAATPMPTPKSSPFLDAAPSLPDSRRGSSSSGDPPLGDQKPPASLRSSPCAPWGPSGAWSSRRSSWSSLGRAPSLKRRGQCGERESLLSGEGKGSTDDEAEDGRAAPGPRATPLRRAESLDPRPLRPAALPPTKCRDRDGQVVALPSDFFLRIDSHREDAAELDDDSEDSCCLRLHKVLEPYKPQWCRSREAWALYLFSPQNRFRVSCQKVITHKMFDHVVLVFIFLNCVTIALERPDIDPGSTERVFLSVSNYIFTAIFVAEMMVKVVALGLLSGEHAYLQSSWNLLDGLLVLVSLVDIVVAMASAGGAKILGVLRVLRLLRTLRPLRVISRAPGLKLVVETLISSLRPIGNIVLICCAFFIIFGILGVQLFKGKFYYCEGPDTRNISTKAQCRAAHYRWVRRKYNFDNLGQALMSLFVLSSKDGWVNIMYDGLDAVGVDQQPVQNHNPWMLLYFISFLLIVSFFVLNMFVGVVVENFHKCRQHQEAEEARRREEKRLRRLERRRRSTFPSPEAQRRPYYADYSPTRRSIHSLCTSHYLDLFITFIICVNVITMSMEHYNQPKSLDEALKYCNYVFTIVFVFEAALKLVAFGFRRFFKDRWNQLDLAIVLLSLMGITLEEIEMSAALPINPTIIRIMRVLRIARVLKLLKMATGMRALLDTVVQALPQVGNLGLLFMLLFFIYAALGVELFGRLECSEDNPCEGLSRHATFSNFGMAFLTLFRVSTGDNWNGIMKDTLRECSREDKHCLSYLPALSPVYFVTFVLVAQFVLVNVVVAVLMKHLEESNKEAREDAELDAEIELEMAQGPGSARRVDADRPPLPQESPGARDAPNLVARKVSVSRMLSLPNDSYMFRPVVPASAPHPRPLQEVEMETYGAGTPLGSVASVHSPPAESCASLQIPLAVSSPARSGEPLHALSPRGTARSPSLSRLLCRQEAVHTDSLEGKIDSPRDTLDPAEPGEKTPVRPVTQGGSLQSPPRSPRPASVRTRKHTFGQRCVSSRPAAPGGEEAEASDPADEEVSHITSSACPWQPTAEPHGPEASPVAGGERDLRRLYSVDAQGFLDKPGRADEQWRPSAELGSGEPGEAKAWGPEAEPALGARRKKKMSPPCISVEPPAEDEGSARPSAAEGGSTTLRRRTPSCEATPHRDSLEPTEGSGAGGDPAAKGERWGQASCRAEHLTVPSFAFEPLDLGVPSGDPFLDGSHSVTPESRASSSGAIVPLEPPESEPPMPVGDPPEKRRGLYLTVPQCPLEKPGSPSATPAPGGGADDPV
Chain of Nuclear receptor subfamily 0 group B member 1 (P51843 whole entry): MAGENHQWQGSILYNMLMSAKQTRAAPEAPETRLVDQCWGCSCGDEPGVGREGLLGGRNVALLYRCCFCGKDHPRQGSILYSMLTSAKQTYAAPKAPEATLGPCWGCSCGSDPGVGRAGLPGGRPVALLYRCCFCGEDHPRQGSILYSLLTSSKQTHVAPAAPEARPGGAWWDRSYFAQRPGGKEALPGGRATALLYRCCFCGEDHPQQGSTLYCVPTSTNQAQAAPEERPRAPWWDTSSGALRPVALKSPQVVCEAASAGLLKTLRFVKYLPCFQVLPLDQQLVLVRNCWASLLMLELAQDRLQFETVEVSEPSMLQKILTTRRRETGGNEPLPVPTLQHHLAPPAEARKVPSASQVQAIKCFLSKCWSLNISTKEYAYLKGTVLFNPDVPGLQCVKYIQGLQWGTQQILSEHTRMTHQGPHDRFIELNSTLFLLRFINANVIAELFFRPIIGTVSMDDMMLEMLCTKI
Chain of Arf-GAP with SH3 domain, ANK repeat and PH domain-containing protein 1 (Q9ULH1 whole entry, the tested form may be a part): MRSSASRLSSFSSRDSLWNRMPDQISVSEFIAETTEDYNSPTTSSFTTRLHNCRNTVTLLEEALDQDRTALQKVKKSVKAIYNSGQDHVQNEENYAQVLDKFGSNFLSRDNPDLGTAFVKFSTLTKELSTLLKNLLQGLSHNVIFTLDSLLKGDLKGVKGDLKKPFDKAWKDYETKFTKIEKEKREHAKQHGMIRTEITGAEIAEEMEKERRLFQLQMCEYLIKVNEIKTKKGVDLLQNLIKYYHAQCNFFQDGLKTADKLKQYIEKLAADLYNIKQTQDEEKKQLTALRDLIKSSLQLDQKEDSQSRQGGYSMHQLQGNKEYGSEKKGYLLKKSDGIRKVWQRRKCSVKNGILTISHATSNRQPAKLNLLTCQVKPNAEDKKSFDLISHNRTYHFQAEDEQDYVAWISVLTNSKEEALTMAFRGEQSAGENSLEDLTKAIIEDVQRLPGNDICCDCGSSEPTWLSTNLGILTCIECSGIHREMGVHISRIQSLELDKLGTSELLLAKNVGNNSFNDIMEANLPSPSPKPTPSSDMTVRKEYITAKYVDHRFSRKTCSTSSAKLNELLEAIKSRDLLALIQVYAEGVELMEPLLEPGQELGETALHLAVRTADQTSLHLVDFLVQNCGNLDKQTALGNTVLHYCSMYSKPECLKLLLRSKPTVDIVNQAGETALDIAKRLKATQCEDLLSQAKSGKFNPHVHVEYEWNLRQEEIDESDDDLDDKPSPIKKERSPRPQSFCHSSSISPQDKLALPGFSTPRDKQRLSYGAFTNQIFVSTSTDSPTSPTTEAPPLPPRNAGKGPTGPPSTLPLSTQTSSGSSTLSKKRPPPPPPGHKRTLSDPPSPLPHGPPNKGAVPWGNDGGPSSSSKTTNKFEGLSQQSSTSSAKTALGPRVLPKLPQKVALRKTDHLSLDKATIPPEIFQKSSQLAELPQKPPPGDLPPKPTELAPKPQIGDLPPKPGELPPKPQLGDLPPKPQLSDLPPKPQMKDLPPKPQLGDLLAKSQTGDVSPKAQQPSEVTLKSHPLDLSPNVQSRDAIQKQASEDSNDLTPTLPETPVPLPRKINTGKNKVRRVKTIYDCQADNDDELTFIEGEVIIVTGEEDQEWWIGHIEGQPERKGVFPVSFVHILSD
Chain of Albumin (P02769 whole entry): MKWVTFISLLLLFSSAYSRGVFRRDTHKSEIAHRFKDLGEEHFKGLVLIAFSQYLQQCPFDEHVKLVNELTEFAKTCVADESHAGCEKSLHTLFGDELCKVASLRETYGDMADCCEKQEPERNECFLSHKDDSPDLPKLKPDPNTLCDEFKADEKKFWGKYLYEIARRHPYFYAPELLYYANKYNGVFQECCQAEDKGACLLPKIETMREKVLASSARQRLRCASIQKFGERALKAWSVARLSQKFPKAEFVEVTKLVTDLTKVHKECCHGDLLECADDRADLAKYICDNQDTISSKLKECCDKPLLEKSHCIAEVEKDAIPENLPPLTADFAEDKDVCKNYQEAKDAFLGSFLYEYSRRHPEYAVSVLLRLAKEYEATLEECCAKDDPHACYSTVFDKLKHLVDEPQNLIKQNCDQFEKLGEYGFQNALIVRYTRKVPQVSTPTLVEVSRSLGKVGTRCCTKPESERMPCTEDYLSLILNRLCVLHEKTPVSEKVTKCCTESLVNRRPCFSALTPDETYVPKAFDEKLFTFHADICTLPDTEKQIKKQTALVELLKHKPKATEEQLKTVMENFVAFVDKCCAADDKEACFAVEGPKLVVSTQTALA

SMILES: CN(Cc1ccccc1)S(=O)(=O)c1ccc(NS(=O)(=O)Cc2ccccc2)cc1
- EC50 [1]: 3.46 µM (active)
- EC50 [2]: 1.25 µM (active)
- EC50 [3]: 0.0609 µM (active)

SMILES: O=c1c2cc(N3CCOCC3)ccc2[nH]c(=S)n1Cc1ccc(Cl)cc1
- EC50 [4]: 2.96 µM (active)
- EC50 [5]: 0.719 µM (active)
- EC50 [6]: 4.66 µM (active)
- EC50 [7]: 5.35 µM (active)
- EC50 [8]: 66.7 µM (active)
- EC50 (H4): 5.33 µM (active)
- AC50 [9]: > 52 µM (inactive)

SMILES: O=C(NNC(=O)c1cc2ccccc2cc1O)Nc1ccc(F)cc1F
- IC50 (Albumin): > 94.1 µM (inactive)

SMILES: O=C1c2ccccc2C(=O)N1CCOc1ccccc1Br
- IC50 (cells): > 67.5 µM (inactive)
- IC50 [10]: > 67.5 µM (inactive)

SMILES: CN(C)c1ccc(/C=C/c2cc[n+](C)c3ccccc23)cc1.[O-][Cl+3]([O-])([O-])[O-]
- CC50 [11]: 41.1 µM (active)
- IC50 [12]: 36.1 µM (active)
- IC50 [13]: 21.4 µM (inactive)
- AC50 [14]: 11.7 µM (active)
- IC50 [15]: 28.6 µM (inactive)
